Values after ≈ are worked out from the molar mass of the structure shown. Where two headings read alike, the source gives them in different places.
Tests used:
glucosidase I = conditions: Schweden et al.; compared to N-methyl- and N-butyl-derivatives; cited from earlier work
almond β-glucosidase [1] = assay: Beta-glucosidase inhibition assay, pH 4.8; type: biochemical; conditions: for IC50: read-out: Enzyme Inhibition-IC50, Almond β-Glucosidase pH 4.8
Experimental: (§1) Yeast alpha-glucosidase and almond beta-glucosidase activities were measured by a modification of the method of Evans, et al., Phytochemistry 22, 768-770 (1983). The modifications included 1) assay of activities at pH 7.4 in HEPES (N-2-hydroxyethylpiperazine-N'-2-ethanesulfonic acid) buffer, 2) measurement in 96 well microtiter plates and 3) inclusion of 10% DMSO in control and test samples.
(§2) The release of p-nitrophenol from the substrate p-nitrophenylglycoside was measured spectrophotometrically in the presence and absence of test compound. Each assay included a known inhibitor of the enzyme as a standard.
To 100 μl 50 mM sodium citrate buffer, pH 4.8, in a microtiter plate, add 15 μl test compound in DMSO (DMSO alone in control), 20 μl (0.017 units) beta-glucosidase (Sigma) in citrate buffer and pre-incubate at room temperature for 15 minutes. Add 25 μl 2.50 mM p-nitrophenyl-beta-D-glucopyranside in citrate buffer, as substrate. […] Add 50 μl 0.4M NaOH. Read absorption change at 405 nm in a Biotek EIA Autoreader. Each sample was tested in triplicate. […] Castanospermine was used as standard inhibitor.

yeast α-glucosidase = biological target: T1, yeast α-glucosidase (Saccharomyces cerevisiae, UniProt P53341); assay: Alpha-glucosidase inhibition assay, pH 7.4; type: biochemical
T1 construct: purchased Sigma
Experimental: as §1, §2
To 100 μl 50 mM HEPES buffer, pH 7.4, in a microtiter plate, add 20 μl test compound in DMSO (DMSO alone in control), 40 μl (0.013 units) yeast alpha-glucosidase (Sigma) in HEPES buffer and pre-incubate at room temperature for 15 minutes. Add 40 μl 1.25 mM p-nitrophenyl-alpha-D-glucopyranoside (Sigma) in HEPES buffer, as substrate, and monitor absorbance change at 405 nm in Biotek EIA Auto-reader. Absorption change was measured at 15 to 25 minutes (reaction was linear for at least 30 minutes). Each sample was tested in triplicate. […] Deoxynojirimycin was used as standard inhibitor.

HIV = conditions: cited from earlier work
almond β-glucosidase [2] = assay: Beta-glucosidase inhibition assay, pH 7.4; type: biochemical; conditions: for IC50 / Enzyme Inhibition, Almond β-Glucosidase pH 7.4: pH 7.4; for IC50: read-out: Enzyme Inhibition-IC50, Almond β-Glucosidase pH 7.4; for Inhibition Index (first, head is drawing 3) / Inhibition Index (second, head is drawing 4): ratio of IC50 values; for Inhibition Index (first, head is drawing 3): numerically almond pH 4.8 / almond pH 7.4; for Inhibition Index (second, head is drawing 4): numerically yeast α pH 7.4 / almond β pH 7.4
Experimental: as §1, §2
To 100 μl 50 mM HEPES buffer, pH 7.4, in a microtiter plate, add 20 μl test compound in DMSO (DMSO alone in control), 40 μl (0.136 units) beta-glucosidase (Sigma) in HEPES buffer and pre-incubate at room temperature for 15 minutes. Add 40 μl 1.25 mM p-nitrophenyl-beta-D-glucopyranoside in HEPES buffer, as substrate and monitor absorbance change at 405 nm in a Biotek EIA Autoreader. Absorption change was measured at 15 to 25 minutes (reaction is linear for at least 30 minutes). Each sample was tested in triplicate. […] Castanospermine was used as standard inhibitor.

HIV-1, strain HTLV-IIIB = assay: Reduction of cytopathogenic effect (CPE) in HIV-1 infected CEM cells, MTT assay; type: cell-based
Experimental: These tests involved plating of susceptible human host cells which are syncytium-sensitive with and without virus in microculture plates, adding various concentrations of the test compound, incubating the plates for 9 days (during which time infected, non-drug treated control cells are largely or totally destroyed by the virus), and then determining the number of remaining viable cells using a colorimetric endpoint.
Tissue culture plates were incubated at 37° C. in a humidified, 5% CO2 atmosphere and observed microscopically for toxicity and/or cytopathogenic effect (CPE). At 2 and 6 days after infection, fresh dilutions of each test article were prepared from the frozen stock, and a 20 μl volume of each dilution (prepared as a 10× concentration was added to the appropriate wells of both infected and uninfected cells.
On the 9th day post-infection, the cells in each well were resuspended and a 100 μl sample of each cell suspension was removed for use in an MTT assay. A 20 μl volume of a 5 mg/ml solution of 3-(4,5-dimethylthiazol-2-yl)-2,5-diphenyltetrazolium bromide (MTT) was added to each 100 μl cell suspension, and the cells were incubated at 37° C. in 5% CO2 for 4 hours. […] A 100 μl volume of a solution of 10% sodium dodecyl sulfate in 0.01N hydrochloric acid wa added to each sample, and the samples were incubated overnight. The absorbance at 590 nm was determined for each sample using a Molecular Devices Vmax microplate reader. This assay detects drug-induced suppression of viral CPE, as well as drug cytotoxicity, by measuring the generation of MTT-formazan by surviving cells.
Assays were done in 96-well tissue culture plates. CEM cells were treated with polybrene at a concentration of 2 μg/ml, and an 80 μl volume of cells (1×10^4 cells) was dispensed into each well. A 100 μl volume of each test article dilution (prepared as a 2× concentration) was added to 5 wells of cells, and the cells were incubated at 37° C. for 1 hour. A frozen culture of HIV-1, strain HTLV-IIIB, was diluted in culture medium to a concentration of 5×10^4 TCID50 per ml, and a 20 μl volume (containing 10^3 TCID50 of virus) was added to 3 of the wells for each test article concentration. […] A 20 μl volume of normal culture medium was added to the remaining wells to allow evaluation of cytotoxicity. Each plate contained 6 wells of untreated, uninfected, cell control samples and 6 wells of untreated, infected, virus control samples. Dideoxycytidine (DDC) and dideoxyadenosine (DDA) were included as positive control compounds.

[3] = tested on: Sheep choroid plexus (SCP) cells; assay: Toxicity in control wells (without virus) of the plaque reduction assay; type: cell-based; design: key: 0: no toxicity; 4: total cell lysates; conditions: graded 0 to 4
Experimental: (§3) Sheep choroid plexus(SCP) cells were obtained from American Type Culture Collection (ATCC) catalogue number CRL 1700 and were routinely passaged in vitro in Dulbecco's Modified Eagles (DME) medium supplemented with 20% fetal bovine serum (FBS). SCP cells were passaged once per week at a 1:2 or 1:3 split ratio. Visna was titrated by plaque assay in six-well plates. Virus pools were stored at -70° C.
(§4) SCP cells were cultured in 6-well plates to confluence. Wells were washed two times with serum free Minimal Essential Medium (MEM) to remove FBS. 0.2 ml of virus was added per well in MEM supplemented with 4 mM glutamine and gentamycin. After 1 hour adsorption, the virus was aspirated from each well. The appropriate concentration of each compound in 5 ml of Medium 199 (M-199) supplemented with 2% lamb serum, 4 mM glutamine, 0.5% agarose and gentamycin was added to each well. […] To terminate the test: cultures were fixed in 10% formalin, the agar removed, the monolayers stained with 1% crystal violet and plaques counted. Each compound concentration was run in triplicate. […] 0 is no toxicity observed while 4 is total lysing of the cell monolayer.
Toxicity graded on 0 to 4 scale 0 = no toxicity, 4 = total cell lysates

visna virus = assay: Plaque reduction assay, inhibition of visna virus in vitro; type: cell-based; conditions: Visna-maedi virus, read-out: Antiviral Activity (plaque reduction)
Experimental: as §3, §4

T1 sequence (P53341 whole entry): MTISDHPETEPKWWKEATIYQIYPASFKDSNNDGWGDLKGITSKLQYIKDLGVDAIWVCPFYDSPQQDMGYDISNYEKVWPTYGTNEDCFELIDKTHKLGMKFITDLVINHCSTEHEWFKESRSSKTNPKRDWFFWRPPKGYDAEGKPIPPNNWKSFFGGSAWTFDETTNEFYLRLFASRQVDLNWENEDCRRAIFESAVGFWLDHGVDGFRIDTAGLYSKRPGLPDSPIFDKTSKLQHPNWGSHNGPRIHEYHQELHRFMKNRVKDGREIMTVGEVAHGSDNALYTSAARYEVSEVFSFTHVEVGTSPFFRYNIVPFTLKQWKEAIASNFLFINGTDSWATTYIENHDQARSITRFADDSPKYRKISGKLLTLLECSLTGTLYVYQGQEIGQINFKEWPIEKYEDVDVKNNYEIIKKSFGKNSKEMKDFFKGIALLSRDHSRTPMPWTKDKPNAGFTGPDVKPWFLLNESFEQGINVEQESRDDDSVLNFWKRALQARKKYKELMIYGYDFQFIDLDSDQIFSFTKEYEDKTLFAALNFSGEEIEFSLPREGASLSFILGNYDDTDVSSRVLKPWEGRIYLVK

## CCCCCCCCCCN1C[C@H](O)[C@@H](O)[C@H](O)[C@H]1CO [N-decyl-derivatives, reference compound]
Glucosidase I
  Ki, glucosidase I: greater Ki values than the N-methyl- and N-butyl-derivatives

## CN1C[C@H](O)[C@@H](O)[C@H](O)[C@H]1CO [Methyl, N-methyl-deoxynojirimycin, reference compound]
Almond β-glucosidase [1]
  IC50: 366 µM
Yeast α-glucosidase
  IC50: 54 µM
HIV; literature
  HIV inhibitory / antiviral activity: significant antiviral activity
HIV; literature, listed as N-methyl derivative of deoxynojirimycin (DNJ)
  HIV inhibitory / antiviral activity: activity against HIV
Almond β-glucosidase [2]
  IC50: 102 µM
  Inhibition Index (first, head is drawing 3): 3.5
  Inhibition Index (second, head is drawing 4): 0.53

## CCN1C[C@H](O)[C@@H](O)[C@H](O)[C@H]1CO [Ethyl, reference compound]
Almond β-glucosidase [1]
  IC50: ~1000 µM
Yeast α-glucosidase; pH 7.4, read-out: Enzyme Inhibition, Yeast α-Glucosidase pH 7.4
  inhibition at 1000 µM: 51%
HIV; Karpas et al.
  reduction of the yield of infectious HIV: three
Almond β-glucosidase [2]; at 1 mM
  Enzyme Inhibition, Almond β-Glucosidase pH 7.4: 67%
Almond β-glucosidase [2]
  Inhibition Index (first, head is drawing 3): ~ 1
  Inhibition Index (second, head is drawing 4): ~ 1

## O[C@@H]1[C@@H](O)[C@@H](O)CN2CC[C@@H](O)[C@@H]12 [L-6-epicastanospermine]
HIV; literature
  HIV inhibitory / antiviral activity: neither the epimer L-1,6-diepicastanospermine nor the stereoisomer of castanospermine, L-6-epicastanospermine, were found to be inhibitory

## Nc1ccn([C@H]2CC[C@@H](CO)O2)c(=O)n1 [DDC, Dideoxycytidine, reference compound]
HIV-1, strain HTLV-IIIB; Human immunodeficiency virus 1, IIIB, CCRF-CEM, 216 h, 0.01 μg/ml, read-out: Percent Reduction of CPE
  inhibition at 0.01 µg/mL: 41.5%
HIV-1, strain HTLV-IIIB; Human immunodeficiency virus 1, IIIB, CCRF-CEM, 216 h, 0.032 μg/ml, read-out: Percent Reduction of CPE
  inhibition at 0.032 µg/mL: 73.9%
HIV-1, strain HTLV-IIIB; Human immunodeficiency virus 1, IIIB, CCRF-CEM, 216 h, HIV-1, CEM cells, reduction of CPE, read-out: ID50 (median inhibitory dose)
  IC50: 0.01 µg/mL (≈ 0.0473 µM)

## O=c1[nH]cnc2c1ncn2[C@H]1CC[C@@H](CO)O1 [DDI, reference compound]
HIV-1, strain HTLV-IIIB; 1.0 μg/ml, 12960 min
  Percent Reduction of CPE: 28.3%
HIV-1, strain HTLV-IIIB; 3.2 μg/ml, 12960 min
  Percent Reduction of CPE: 49.6%
HIV-1, strain HTLV-IIIB; 10 μg/ml, 12960 min
  Percent Reduction of CPE: 75.6%
HIV-1, strain HTLV-IIIB; HIV-1, CEM cells, reduction of CPE, 12960 min
  ID50 (median inhibitory dose): 3.0 µg/mL (≈ 12.7 µM)

## Cc1cn([C@H]2C[C@H](N=[N+]=[N-])[C@@H](CO)O2)c(=O)[nH]c1=O [AZT, 3'-azido-3'-deoxythymidine]
HIV; literature
  HIV inhibitory / antiviral activity: inhibit replication of the virus in vitro

## CCCCCN1C[C@H](O)[C@@H](O)[C@H](O)[C@H]1CO [Example 1, 1,5-(Pentylimino)-1,5-dideoxy-D-glucitol]
Almond β-glucosidase [1]
  IC50: 423 µM
Yeast α-glucosidase; pH 7.4, read-out: Enzyme Inhibition-IC50, Yeast α-Glucosidase pH 7.4
  IC50: 444 µM
Almond β-glucosidase [2]
  IC50: 15 µM
  Inhibition Index (first, head is drawing 3): 28.2
  Inhibition Index (second, head is drawing 4): 29.5

## O[C@@H]1[C@@H](O)[C@@H](O)CN2CC[C@H](O)[C@@H]12 [L-1,6-diepicastanospermine]
HIV; literature
  HIV inhibitory / antiviral activity: neither the epimer L-1,6-diepicastanospermine nor the stereoisomer of castanospermine, L-6-epicastanospermine, were found to be inhibitory

## O[C@H]1[C@H](O)[C@@H](O)CN2CC[C@H](O)[C@H]12 [castanospermine]
HIV; literature
  HIV inhibitory / antiviral activity: inhibition of the cytopathic effect (CPE)
  reduction in virion infectivity: only a modest reduction in virion infectivity

## CCCCCCCCCCCCCCN1C[C@H](O)[C@@H](O)[C@H](O)[C@H]1CO [Example 4, 1,5-(Tetradecylimino)-1,5-dideoxy-D-glucitol]
Almond β-glucosidase [1]; at 10 μM
  Enzyme Inhibition, Almond β-Glucosidase pH 4.8: 22%
Yeast α-glucosidase; pH 7.4, at 10 μM, read-out: Enzyme Inhibition, Yeast α-Glucosidase pH 7.4
  inhibition at 10 µM: 0%
[3]; 10 μM
  Toxicity: 1
[3]; 0.1 mM
  Toxicity: 4
[3]; 1 mM
  Toxicity: 4
Almond β-glucosidase [2]; at 10 μM
  Enzyme Inhibition, Almond β-Glucosidase pH 7.4: 31%
Visna virus; 10 μM
  inhibition at 10 µM: 84%
Visna virus; 0.1 mM
  inhibition at 100 µM: 100%
Visna virus; 1 mM
  inhibition at 1000 µM: 100%
